Measurements from ChEMBL document CHEMBL3526031, “Mechanistic studies on the absorption and disposition of scutellarin in humans: selective OATP2B1-mediated hepatic uptake is a likely key determinant for its unique pharmacokinetic characteristics” (Drug Metab Dispos, 2012).
One block for each molecule: values may come before it.

Columns and labels:
Homo sapiens = assay: Drug level in human assessed as retention time treated with 40 mg, po of scutellarin measured up to 20 hrs by mass defect filter chromatogram analysis; format: ADME, organism-based
[1] = Drug metabolism in rat intestinal microsomes assessed as formation of scutellarein-7-O-glucuronide after 7 mins by HPLC/UV analysis; format: ADME, Intestine, Microsome
[2] = Drug metabolism in human intestinal microsomes assessed as formation of scutellarein-6-O-glucuronide after 7 mins by HPLC/UV analysis; format: ADME, Intestine, Microsome
Liver microsome [3] = assay: Drug metabolism in human liver microsomes assessed as formation of scutellarein-7-O-glucuronide after 7 mins by HPLC/UV analysis; format: ADME
[4] = Ratio of Vmax to Km for drug metabolism in human intestinal microsomes assessed as formation of scutellarein-7-O-glucuronide after 7 mins by HPLC/UV analysis; format: ADME, Intestine, Microsome
[5] = Drug metabolism in human intestinal microsomes assessed as formation of scutellarein-7-O-glucuronide after 7 mins by HPLC/UV analysis; format: ADME, Intestine, Microsome
Liver microsome [6] = assay: Ratio of Vmax to Km for drug metabolism in rat liver microsomes assessed as formation of scutellarein-6-O-glucuronide after 7 mins by HPLC/UV analysis; format: ADME
Liver microsome [7] = assay: Drug metabolism in rat liver microsomes assessed as formation of scutellarein-6-O-glucuronide after 7 mins by HPLC/UV analysis; format: ADME
Liver microsome [8] = assay: Ratio of Vmax to Km for drug metabolism in human liver microsomes assessed as formation of scutellarein-7-O-glucuronide after 7 mins by HPLC/UV analysis; format: ADME
Liver microsome [9] = assay: Drug metabolism in human liver microsomes assessed as formation of scutellarein-6-O-glucuronide after 7 mins by HPLC/UV analysis; format: ADME
Liver microsome [10] = assay: Drug metabolism in rat liver microsomes assessed as formation of scutellarein-7-O-glucuronide after 7 mins by HPLC/UV analysis; format: ADME
[11] = target: T1, UDP-glucuronosyltransferase 1A1 (Homo sapiens, UniProt P22309); assay: Drug metabolism assessed as human recombinant UGT1A1-mediated formation of scutellarein-7-O-glucuronide after 25 mins by HPLC/UV analysis; format: ADME
T1 sequence (P22309 whole entry): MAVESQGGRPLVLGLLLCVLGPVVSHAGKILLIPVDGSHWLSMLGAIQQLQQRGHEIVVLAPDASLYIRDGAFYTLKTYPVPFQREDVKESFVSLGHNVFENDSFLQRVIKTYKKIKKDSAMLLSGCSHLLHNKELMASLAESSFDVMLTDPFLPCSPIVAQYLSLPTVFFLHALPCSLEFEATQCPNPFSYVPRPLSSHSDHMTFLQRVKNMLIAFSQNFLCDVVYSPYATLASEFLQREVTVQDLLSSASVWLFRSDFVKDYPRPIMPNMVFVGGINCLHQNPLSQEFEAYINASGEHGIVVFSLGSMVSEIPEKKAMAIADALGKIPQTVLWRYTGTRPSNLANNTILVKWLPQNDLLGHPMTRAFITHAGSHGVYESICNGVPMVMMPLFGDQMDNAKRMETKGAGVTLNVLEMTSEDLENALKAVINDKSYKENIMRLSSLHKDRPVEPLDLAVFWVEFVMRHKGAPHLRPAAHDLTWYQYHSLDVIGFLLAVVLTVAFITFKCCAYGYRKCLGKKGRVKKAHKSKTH

Liver microsome [12] = assay: Ratio of Vmax to Km for drug metabolism in human liver microsomes assessed as formation of scutellarein-6-O-glucuronide after 7 mins by HPLC/UV analysis; format: ADME
[13] = Ratio of Vmax to Km for drug metabolism in rat intestinal microsomes assessed as formation of scutellarein-7-O-glucuronide after 7 mins by HPLC/UV analysis; format: ADME, Intestine, Microsome
[14] = Ratio of Vmax to Km for drug metabolism in human intestinal microsomes assessed as formation of scutellarein-6-O-glucuronide after 7 mins by HPLC/UV analysis; format: ADME, Intestine, Microsome
Liver microsome [15] = assay: Ratio of Vmax to Km for drug metabolism in rat liver microsomes assessed as formation of scutellarein-7-O-glucuronide after 7 mins by HPLC/UV analysis; format: ADME
[16] = substrate: O=c1cc(-c2ccc(O)cc2)oc2cc(O)c(O)c(O)c12; assay: Drug metabolism assessed as human recombinant UGT1A10-mediated formation of scutellarein-6-O-glucuronide after 25 mins by HPLC/UV analysis; format: ADME
[17] = substrate: O=c1cc(-c2ccc(O)cc2)oc2cc(O)c(O)c(O)c12; assay: Drug metabolism assessed as human recombinant UGT1A10-mediated formation of scutellarein-7-O-glucuronide after 25 mins by HPLC/UV analysis; format: ADME
[18] = substrate: O=c1cc(-c2ccc(O)cc2)oc2cc(O)c(O)c(O)c12; assay: Drug metabolism assessed as human recombinant UGT1A9-mediated formation of scutellarein-7-O-glucuronide after 25 mins by HPLC/UV analysis; format: ADME
[19] = substrate: O=c1cc(-c2ccc(O)cc2)oc2cc(O)c(O)c(O)c12; assay: Drug metabolism assessed as human recombinant UGT1A9-mediated formation of scutellarein-6-O-glucuronide after 25 mins by HPLC/UV analysis; format: ADME
[20] = substrate: O=C(O)[C@H]1O[C@@H](Oc2c(O)cc3oc(-c4ccc(O)cc4)cc(=O)c3c2O)[C@H](O)[C@@H](O)[C@@H]1O; assay: Drug uptake assessed as OATP2B1 (unknown origin)-mediated drug transport expressed in HEK293 cells after 7 mins by LC-MS/MS analysis; format: ADME, cell-based, Homo sapiens
[21] = substrate: O=c1cc(-c2ccc(O)cc2)oc2cc(O)c(O)c(O)c12; assay: Drug metabolism assessed as human recombinant UGT2B7-mediated formation of scutellarein-6-O-glucuronide after 25 mins by HPLC/UV analysis; format: ADME

Retention_time (Homo sapiens): 6.02 min
Molecule: O=C(O)[C@H]1O[C@@H](Oc2cc3oc(-c4ccc(O)cc4)cc(=O)c3c(O)c2O[C@@H]2O[C@H](C(=O)O)[C@@H](O)[C@H](O)[C@H]2O)[C@H](O)[C@@H](O)[C@@H]1O

Km [1]: 9 µM
Vmax [1]: 17.3 nmol/min/mg
Km [2]: 7.06 µM
Vmax [2]: 2.41 nmol/min/mg
Km (Liver microsome [3]): 6.32 µM
Vmax (Liver microsome [3]): 8.64 nmol/min/mg
Vmax/Km [4]: 924 µL/min/mg
Ki [5]: 401 µM
Km ([5]; human, microsomes, 7 min): 5.9 µM
Vmax ([5]; human, microsomes, 7 min): 5.45 nmol/min/mg
Vmax/Km (Liver microsome [6]): 577 µL/min/mg
Km (Liver microsome [7]): 2860 nM
Vmax (Liver microsome [7]): 1.65 nmol/min/mg
Vmax/Km (Liver microsome [8]): 1368 µL/min/mg
Km (Liver microsome [9]): 16.2 µM
Vmax (Liver microsome [9]): 1.59 nmol/min/mg
Km (Liver microsome [10]): 7.37 µM
Vmax (Liver microsome [10]): 10 nmol/min/mg
Ki [11]: 41.3 µM
Vmax/Km (Liver microsome [12]): 97.9 µL/min/mg
Vmax/Km [13]: 1924 µL/min/mg
Vmax/Km [14]: 342 µL/min/mg
Vmax/Km (Liver microsome [15]): 1361 µL/min/mg
Molecule: O=c1cc(-c2ccc(O)cc2)oc2cc(O)c(O)c(O)c12 [SCUTELLAREIN]

B1: UDP-glucuronosyltransferase 1A10 (Homo sapiens) (protein)
chain: MARAGWTSPVPLCVCLLLTCGFAEAGKLLVVPMDGSHWFTMQSVVEKLILRGHEVVVVMPEVSWQLERSLNCTVKTYSTSYTLEDQNREFMVFAHAQWKAQAQSIFSLLMSSSSGFLDLFFSHCRSLFNDRKLVEYLKESSFDAVFLDPFDTCGLIVAKYFSLPSVVFTRGIFCHHLEEGAQCPAPLSYVPNDLLGFSDAMTFKERVWNHIVHLEDHLFCQYLFRNALEIASEILQTPVTAYDLYSHTSIWLLRTDFVLDYPKPVMPNMIFIGGINCHQGKPLPMEFEAYINASGEHGIVVFSLGSMVSEIPEKKAMAIADALGKIPQTVLWRYTGTRPSNLANNTILVKWLPQNDLLGHPMTRAFITHAGSHGVYESICNGVPMVMMPLFGDQMDNAKRMETKGAGVTLNVLEMTSEDLENALKAVINDKSYKENIMRLSSLHKDRPVEPLDLAVFWVEFVMRHKGAPHLRPAAHDLTWYQYHSLDVIGFLLAVVLTVAFITFKCCAYGYRKCLGKKGRVKKAHKSKTH
Km [16]: 2.74 µM
Vmax [16]: 3.8e-05 µmol/min/mg
Vmax/Km [16]: 13.7 µL/min/mg
Km [17]: 5.68 µM
Vmax [17]: 0.000318 µmol/min/mg
Vmax/Km [17]: 55.9 µL/min/mg

B2: UDP-glucuronosyltransferase 1A9 (Homo sapiens) (protein)
chain: MACTGWTSPLPLCVCLLLTCGFAEAGKLLVVPMDGSHWFTMRSVVEKLILRGHEVVVVMPEVSWQLGRSLNCTVKTYSTSYTLEDLDREFKAFAHAQWKAQVRSIYSLLMGSYNDIFDLFFSNCRSLFKDKKLVEYLKESSFDAVFLDPFDNCGLIVAKYFSLPSVVFARGILCHYLEEGAQCPAPLSYVPRILLGFSDAMTFKERVRNHIMHLEEHLLCHRFFKNALEIASEILQTPVTEYDLYSHTSIWLLRTDFVLDYPKPVMPNMIFIGGINCHQGKPLPMEFEAYINASGEHGIVVFSLGSMVSEIPEKKAMAIADALGKIPQTVLWRYTGTRPSNLANNTILVKWLPQNDLLGHPMTRAFITHAGSHGVYESICNGVPMVMMPLFGDQMDNAKRMETKGAGVTLNVLEMTSEDLENALKAVINDKSYKENIMRLSSLHKDRPVEPLDLAVFWVEFVMRHKGAPHLRPAAHDLTWYQYHSLDVIGFLLAVVLTVAFITFKCCAYGYRKCLGKKGRVKKAHKSKTH
Km [18]: 5.49 µM
Vmax [18]: 0.00463 µmol/min/mg
Vmax/Km [18]: 843 µL/min/mg
Km [19]: 10.9 µM
Vmax [19]: 0.00167 µmol/min/mg
Vmax/Km [19]: 153 µL/min/mg

B3: Solute carrier organic anion transporter family member 2B1 (Homo sapiens) (protein)
chain: MGPRIGPAGEVPQVPDKETKATMGTENTPGGKASPDPQDVRPSVFHNIKLFVLCHSLLQLAQLMISGYLKSSISTVEKRFGLSSQTSGLLASFNEVGNTALIVFVSYFGSRVHRPRMIGYGAILVALAGLLMTLPHFISEPYRYDNTSPEDMPQDFKASLCLPTTSAPASAPSNGNCSSYTETQHLSVVGIMFVAQTLLGVGGVPIQPFGISYIDDFAHNSNSPLYLGILFAVTMMGPGLAFGLGSLMLRLYVDINQMPEGGISLTIKDPRWVGAWWLGFLIAAGAVALAAIPYFFFPKEMPKEKRELQFRRKVLAVTDSPARKGKDSPSKQSPGESTKKQDGLVQIAPNLTVIQFIKVFPRVLLQTLRHPIFLLVVLSQVCLSSMAAGMATFLPKFLERQFSITASYANLLIGCLSFPSVIVGIVVGGVLVKRLHLGPVGCGALCLLGMLLCLFFSLPLFFIGCSSHQIAGITHQTSAHPGLELSPSCMEACSCPLDGFNPVCDPSTRVEYITPCHAGCSSWVVQDALDNSQVFYTNCSCVVEGNPVLAGSCDSTCSHLVVPFLLLVSLGSALACLTHTPSFMLILRGVKKEDKTLAVGIQFMFLRILAWMPSPVIHGSAIDTTCVHWALSCGRRAVCRYYNNDLLRNRFIGLQFFFKTGSVICFALVLAVLRQQDKEARTKESRSSPAVEQQLLVSGPGKKPEDSRV
Km [20]: 1.77 µM

B4: UDP-glucuronosyltransferase 2B7 (Homo sapiens) (protein)
chain: MSVKWTSVILLIQLSFCFSSGNCGKVLVWAAEYSHWMNIKTILDELIQRGHEVTVLASSASILFDPNNSSALKIEIYPTSLTKTELENFIMQQIKRWSDLPKDTFWLYFSQVQEIMSIFGDITRKFCKDVVSNKKFMKKVQESRFDVIFADAIFPCSELLAELFNIPFVYSLSFSPGYTFEKHSGGFIFPPSYVPVVMSELTDQMTFMERVKNMIYVLYFDFWFEIFDMKKWDQFYSEVLGRPTTLSETMGKADVWLIRNSWNFQFPYPLLPNVDFVGGLHCKPAKPLPKEMEDFVQSSGENGVVVFSLGSMVSNMTEERANVIASALAQIPQKVLWRFDGNKPDTLGLNTRLYKWIPQNDLLGHPKTRAFITHGGANGIYEAIYHGIPMVGIPLFADQPDNIAHMKARGAAVRVDFNTMSSTDLLNALKRVINDPSYKENVMKLSRIQHDQPVKPLDRAVFWIEFVMRHKGAKHLRVAAHDLTWFQYHSLDVIGFLLVCVATVIFIVTKCCLFCFWKFARKAKKGKND
Km [21]: 11.5 µM
Vmax [21]: 8.9e-05 µmol/min/mg
Vmax/Km [21]: 7.74 µL/min/mg
